Literature values, collected in US20170209372A1, “A Method of Preparing Amorphous Solid Dispersion in Submicron Range by Co-Precipitation” (HOVIONE INTERNATIONAL LTD, priority 2014, published 2017).

Row | SMILES | Log P
1 | C(=C\c1ccccc1)/CN1CCN(C(c2ccccc2)c2ccccc2)CC1 [Cinnarizine] | ~5.77
2 | NC(=O)N1c2ccccc2C=Cc2ccccc21 [Carbamazepine] | ~2.6
3 | CCC(C)n1ncn(-c2ccc(N3CCN(c4ccc(OCC5COC(Cn6cncn6)(c6ccc(Cl)cc6Cl)O5)cc4)CC3)cc2)c1=O (stereo not drawn) [Itraconazole] | 4.4
